Consider twelve compounds from patent US7056938B1, “Method for scavenging radicals with urocanic acid, derivatives and analogues” (Academisch Ziekenhuis Bij De Univ., priority 1999, dated 2006).

SMILES strings stand for the structures. Like-named read-outs stand apart in the source and are kept apart here. Marks after values point to notes of the source that are not given here.

A short description of data set [1]: deoxyribose (dR) degradation test, hydroxyl radical scavenging. Type of data set: biochemical. The conditions noted are these: for SECOND ORDER RATE CONSTANT for reaction with hydroxyl radicals: mean of n slopes, sodium phosphate buffer pH 7.2. As for the experimental part:
Trans-UCA, cis-UCA, related imidazoles and non-imidazole compounds were tested with regard to their ability to compete with deoxyribose to scavenge hydroxyl radicals. On exposure to hydroxyl radicals deoxyribose is degraded into malondialdehyde, which reacts with thiobarbituric acid to form a pink chromogen. Powerful hydroxyl-radical scavengers will compete with deoxyribose, resulting in a reduced amount of malondialdehyde. Ten compounds, UCA, UCA analogues, alanine and uric acid (FIG. 1) were tested on their ability to scavenge hydroxyl radicals.
Method: the deoxyribose (dR) degradation test. The test was analogous to an earlier described method. Briefly, the reactions were performed in 5 mL screw cap glass tubes in a final volume of 1.0 mL sodium phosphate buffer (50 mM; pH 7.2), containing 3.0 mM 2 deoxy-D-ribose, 0.5 mM hydrogen peroxide and one of the test compounds at graded concentrations. The reaction was started by the addition of premixed disodium EDTA and ferrous iron solution (final concentrations 0.5 mM and 0.2 mM, respectively). The mixture was left for 15 minutes at room temperature. After addition of 1.0 mL 1% thiobarbituric acid in 50 mM NaOH and 0.75 mL 2.8% trichloroacetic acid, the tubes were heated for 20 minutes in a boiling water bath. The pink color was read at 532 nm and reciprocal absorption values were plotted against the concentration of the test compound after subtraction of appropriate blanks. A series of six duplicate determinations from test compound dilutions was employed to construct a graph slope for the calculation of a rate constant value. The mean, SD, number of rate constants and the percentage of inhibition of deoxyribose degradation, calculated for each test compound, are listed. Results. All second-order rate constants for reaction with hydroxyl radicals and, in addition, the percentage inhibition of deoxyribose degradation with equimolar concentrations (3 mM) of scavenger are summarized in Table 1. Trans-UCA and cis-UCA are substantially more powerful in scavenging hydroxyl radicals (8.0 and 7.1×10^3 M^−1,s^−1, respectively), than the other 4-(5-)-substituted imidazoles, including L-histidine (2.6×10^2 M^−1,s^−1). L-histidine, the precursor of UCA, was included as a known moderate scavenger with structural similarities to UCA. L-alanine was used as a known poor scavenger. Trans-FAA was tested as a non-imidazole acrylic acid derivative, having a furan ring instead.
FIG. 2. A determination of the second order rate constants of trans-UCA and cis-UCA with hydroxyl radicals. The rate constant was derived from the slope of the line (k=slope×kdR×[dR]×A0), where A0 is the absorbance, measured in the absence of hydroxyl radical scavenger. KdR was taken as 3.1×10^9 M^−1,s^−1, derived from pulse radiolysis studies, and [dR]=3 mM. […] The other scavengers were studied similarly.

For the next data set, the system named is rat. The conditions noted are these: oral rat; cited from earlier work.
Data set [2] concerns ear swelling response from BALB/c mice. Description: inhibition of contact hypersensitivity, ear swelling response. The conditions noted are these: for inhibition of CHS (in words): as ammonium salts.
Data set [3] can be described thus: Fenton oxidation of UCA (Fe2+ / hydrogen peroxide, HPLC). The format is physicochemical. The protocol: Trans-UCA and cis-UCA were separated from each other and from several UCA oxidation products on a 4.6×250 mm Alltima C18 and Luna C18 reversed-phase column (Alitech, Deerfield, Ill. and Phenomenex, Torrence, Calif., resp.) with a flow of 0.8 mL/min, delivered by P-3500 HPLC-pumps (Pharmacia, Uppsala, Sweden). Samples of 20 to 200 μL were injected by a Promis II autosampler (Spark Holland, Emmen, The Netherlands) and chromatographic data were recorded on an SP 4270 integrator (Spectra Physics, San Jose, Calif.). Peak area data from samples were only processed under identical HPLC circumstances. A UV-detector (Applied Biosystems, model 759A, Foster City, Calif.) was set for 226 nm detection. Isocratic elution was performed with 10 mM ammonium formate buffer, containing 0.2–0.8 mM tetrabutylammonium(TBA)formate and 1% acetonitrile (pH 7.2). Collected fractions were acidified with formic acid up to a final concentration of 100 mM and passed through C18 could phase extraction columns (J T Baker, Deventer, The Netherlands) in order to remove TBA.
[…] In addition, two hydroxyl-radical-generating systems with copper ions (Cu^2+) were used, consisting of 50 μM Cu^2+ with either 500 μM hydrogen peroxide or 5 mM ascorbic acid.
In the next series of experiments we studied the Fenton oxidation of UCA, representing another natural oxidation process. Trans-UCA and cis-UCA isomers were Fenton oxidized by ferorus ions (Fe^2+) and hydrogen peroxide at physiological concentrations. The initial hydrogen peroxide concentration was 500 μM and the ferrous ion concentration was varied from 0 to 500 μM. In all Fenton oxidation reactions the degree of UCA-isomer breakdown was calculated from their reduced peak areas. The oxidation reaction must have been completed within 2 minutes for all reaction conditions, because no further breakdown was observed after prolonged incubation.
When the Fenton reaction was performed in water instead of phosphate buffer, the oxidative breakdown of trans-UCA was enhanced irrespective of the UCA concentration. The turbidity seen in reactions performed in phoshate buffer (10 mM) with high Fe^2+ concentration (>100 μM) was probably due to the formation of insoluble, iron phosphate, thereby reducing the free availability of Fe^2+. Table 3 summarizes the difference between water and phosphate medium for trans-UCA at an initial concentration of 40 μM with respect to its breakdown and the formation of Fenton-oxidation products. Similarly to the photo-oxidation experiments, the peak areas of the 8 major oxidation products were summed. […] A close resemblance was observed between the chromatographic patterns of UCA Fenton oxidation products (not shown) and those of UCA photo-oxidation products. Three of them has been identified (vide infra).
In another series of experiments we studied the Fenton oxidation of UCA, representing another natural oxidation process. The initial hydrogen peroxide concentration was 500 μM in all experiments and the ferrous ion concentration was varied from 0 to 400 μM. Four sets of conditions were compared: […] in phosphate buffer pH 7.2, 2. Fe^2+ in phosphate buffer plus EDTA, 3. Fe^2− without buffer with a initial pH of 5.5–5.3 and 4. Cu^2+ in phosphate buffer plus ascorbate. The degree of breakdown was similar for both UCA isomers.

The mark [4] stands for this setting: [SCAVENGER] = [DEOXYRIBOSE] = 3 Mm.

For the compound `Cc1ncc[nH]1` [2-Methylimidazole, 2-methylimidazole], in data set [1], the “hydroxyl radical scavenging ability (in words)” value was “stronger hydroxyl radical scavengers” and the “SECOND ORDER RATE CONSTANT for reaction with hydroxyl radicals” value (“SECOND ORDER RATE CONSTANT for reaction” for short) worked out at 1.17e+10 M⁻¹ s⁻¹. Besides, in data set [1] (15 min, 3 mM, pH 7.2), the “INHIBITION of DEOXYRIBOSE DEGRADATION” value was found to be 76%. The LD50 (as a rule, the dose at which mortality reaches 50%) with rat was 1500 mg/kg.
As for `O=C(O)CCc1c[nH]cn1` [Dihydrourocanic acid, 3-(imidazol-4-yl)-propionic acid], in data set [1], the “hydroxyl radical scavenging ability (in words)” value is listed as “moderate scavenging ability” and the “SECOND ORDER RATE CONSTANT for reaction” value was 3.7e+09 M⁻¹ s⁻¹. Moreover, in data set [1] (15 min, 3 mM, pH 7.2), the “INHIBITION of DEOXYRIBOSE DEGRADATION” value is recorded as 34%.
Take `O=CC(=O)O` [Glyoxylic acid, glyoxylic acid]: the “inhibition of CHS (in words)” value in data set [2] is recorded as “did not exhibit significant inhibition”.
As for `O=Cc1c[nH]cn1` [ImCHO, imidazole-4-carboxaldehyde], the “yield of ImCOOH from ImCHO as starting material” value in data set [3] (after Fenton- or photooxidation) is about 100%.
Regarding `O=C(O)Cc1c[nH]cn1` [Imidazole-4acetic acid, imidazole-4-acetic acid], in data set [1], the “hydroxyl radical scavenging ability (in words)” value is “moderate scavenging ability” and the “SECOND ORDER RATE CONSTANT for reaction” value came to 2.2e+09 M⁻¹ s⁻¹. Further, the “INHIBITION of DEOXYRIBOSE DEGRADATION” value in data set [1] (setting [4]) is 30%.
As to `C[C@H](N)C(=O)O` [L-Alanine, L-alanine], the “INHIBITION of DEOXYRIBOSE DEGRADATION” value in data set [1] (setting [4]) is 2%. In data set [1], the “SECOND ORDER RATE CONSTANT for reaction” value is 1e+08 M⁻¹ s⁻¹.
For the compound `N[C@@H](Cc1c[nH]cn1)C(=O)O` [L-Histidine, L-histidine], in data set [1], the rate constant for scavenging hydroxyl radicals worked out at 2.6e+09 M⁻¹ s⁻¹ and the “SECOND ORDER RATE CONSTANT for reaction” value is on record as 2.6^(c) × 10^9 M^−1 · s^−1. In addition, in data set [1] (setting [4]), the “INHIBITION of DEOXYRIBOSE DEGRADATION” value stood at 34%.
On to `O=c1[nH]c(=O)c2[nH]c(=O)[nH]c2[nH]1` [Uric acid, uric acid], for which the “INHIBITION of DEOXYRIBOSE DEGRADATION” value in data set [1] (15 min, 3 mM, pH 7.2) is reported as 91%. For the same compound, in data set [1], the “SECOND ORDER RATE CONSTANT for reaction” value was 2.78e+10 M⁻¹ s⁻¹.
As to `O=C(O)/C=C\c1c[nH]cn1` [cis-Urocanic acid], the “INHIBITION of DEOXYRIBOSE DEGRADATION” value in data set [1] (setting [4]) was found to be 64%. Besides, in data set [1], the “SECOND ORDER RATE CONSTANT for reaction” value is 7.1e+09 M⁻¹ s⁻¹. The “second order rate constant in the particular set of FIG. 2” value in data set [1] (single set of FIG. 2, kdR 3.1×10^9, [dR]=3 mM) is 7.33 ×10^9 M^−1,s^−1. Besides, the “broken down by the unbuffered Fenton oxidation system” value in data set [3] (initial UCA concentration 250 μM, unbuffered) came out at 75%. In addition, the ear swelling in data set [2] (1 g/l, maximum normalized to 100%) is 31%.
As for `c1c[nH]cn1` [imidazole], the “hydroxyl radical scavenging ability (in words)” value in data set [1] is on record as “stronger scavengers than the UCA isomers”.
As to `O=C(O)C(=O)O` [oxalic acid], the “inhibition of CHS (in words)” value in data set [2] is on record as “did not exhibit significant inhibition”.
Turning to `O=C(O)/C=C/c1ccco1` [trans-2-Furylacylic acid, trans-2-furylacrylic acid], in data set [1], the “INHIBITION of DEOXYRIBOSE DEGRADATION” value is under 2%, the “hydroxyl radical scavenging ability (in words)” value is reported as “very poor scavenging ability” and the “SECOND ORDER RATE CONSTANT for reaction” value is under 1e+08 M⁻¹ s⁻¹.
